No end group written: not given here.
Molecular target: T1, APC (Homo sapiens, UniProt P04070)
T1 construct: begins at amino acid residue position 158 and ends at 419; The light chain is 155 amino acid residues in length; tissue Factor IX concentrate from Immuno AG, Vienna; thrombin from Enzyme Research Laboratories
Assay: APC-catalyzed inactivation of Factor Va, read out by Factor Va-prothrombinase assay
Format: biochemical
Method: FIG. 5 illustrates the APC-catalyzed inactivation of Factor Va in the presence of peptide-(390-404) and phospholipids. The assay was carried out in TBS-BSA and 2.5 mM CaCl2 at pH 7.4 as described in Example 5a5) using 0.25 nM APC, 10.0 nM Va, 50 μM phospholipid vesicles and 0 to 50 μM peptide-(390-404), that had been preincubated for 20 minutes at 22° C. with Factor Va. Factor Va inactivation by APC was indirectly determined using the cofactor activity of Factor Va in a prothrombinase assay as described in Example 5a5). Residual APC activity in the presence of the peptide was calculated from a standard curve.
The assay consisted of two parts wherein the APC catalyzed inactivation of Factor Va in the absence or presence of peptides was tested in the first part followed by the indirect determination of remaining Factor Va activity in a prothrombinase assay in the second part.
The APC catalyzed inactivation of Factor Va assays were performed in 96-well flat bottom ELISA plates (Stockwell Scientific, Walnut, Calif.). The reactions were performed either in the presence or absence of phospholipid vesicles to determine if peptide-(390-404) inhibited APC anticoagulant activity by inhibiting the binding of APC or its substrate to phospholipids or if it was independent of phospholipid surfaces. […]

T1 sequence (P04070 212-461): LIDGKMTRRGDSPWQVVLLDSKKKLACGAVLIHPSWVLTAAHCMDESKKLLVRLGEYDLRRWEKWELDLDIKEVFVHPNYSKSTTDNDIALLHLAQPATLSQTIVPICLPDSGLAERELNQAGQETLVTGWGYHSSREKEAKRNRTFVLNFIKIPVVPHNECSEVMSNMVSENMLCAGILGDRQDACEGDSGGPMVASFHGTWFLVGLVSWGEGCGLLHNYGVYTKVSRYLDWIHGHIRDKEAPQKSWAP
T1 sequence (P04070 43-197): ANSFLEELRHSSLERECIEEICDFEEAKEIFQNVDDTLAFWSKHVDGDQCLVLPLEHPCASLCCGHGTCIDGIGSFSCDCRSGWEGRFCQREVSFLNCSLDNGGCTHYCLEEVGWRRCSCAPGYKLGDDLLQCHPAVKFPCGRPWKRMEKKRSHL

Q: “YGVYTKVSRYLDWIH-NH2 [peptide-(390-404), YGVYTKVSRYLDWIH]” was tested. Which IC50 (50 μM phospholipid vesicles, 0.25 nM APC, 10.0 nM Va, read-out: half-maximal inhibition of APC-catalyzed inactivation of Factor Va) did it give?
A: Its IC50 is 4 µM.

Q: And the “inhibition of APC activity” value (absence of phospholipids, 5 nM APC, 40 nM Va, 50 μM peptide)?
A: The value was 94%.

— patent publication US5279956A, “Activated protein C polypeptides and anti-peptide antibodies, diagnostic methods and systems for inhibiting activated protein C” (The Scripps Research Institute, priority 1991, dated 1994)
